Measured values: patent EP4635500A1, “THERAPEUTIC AGENT FOR BACTERIAL INFECTION” (Sumitomo Pharma Co., Ltd., priority 2022, dated 2024)
Values after ≈ are worked out from the molar mass of the structure shown. Read-outs that look alike come from different tables or passages of the source.

Tests used:
Type in all cases: cell-based
Enterobacterales = experiment: MIC, broth microdilution, CDC/FDA Antibiotic Resistance Isolate Bank (Example 7, Tables 8, 11, 12); details: for MIC50: carbapenemase-producing Enterobacterales, read-out: MIC50
Enterobacter cloacae = experiment: MIC, broth microdilution, standard strains and Japanese clinical isolates (Example 5, Table 4)
Klebsiella pneumoniae = experiment: as above
Enterobacter hormaechei = experiment: as above; details: ATCCBAA2082; KUB4001 Enterobacter hormaechei ATCC BAA-2082, KPC-2
[1] = tested on: Metallo-β-lactamase producing strains (N = 27); experiment: MIC50/MIC90 for carbapenemase-producing isolates (Example 5, Table 6); details: metallo-β-lactamase-producing strains; combination: Compound A at a fixed concentration of 4 µg/mL; read-out: MIC90
CRE and CPE strains = experiment: MIC, broth microdilution, standard strains and Japanese clinical isolates (Example 5, Table 4 continued; organism of each KUB strain not given)

## CC(C)(O/N=C(\C(=O)N[C@@H]1C(=O)N2C(C(=O)[O-])=C(C[N+]3(CCNC(=O)c4ccc(O)c(O)c4Cl)CCCC3)CS[C@H]12)c1csc(N)n1)C(=O)O [Cefiderocol, cefiderocol]
Enterobacterales; Klebsiella pneumoniae, KUB No. 5576, AR Bank # 79, read-out: MIC
  MIC: 0.12 µg/mL (≈ 0.16 µM)
Enterobacterales; Klebsiella pneumoniae, KUB No. 5577, AR Bank # 80, read-out: MIC
  MIC: 2 µg/mL (≈ 2.66 µM)
Enterobacterales; Klebsiella pneumoniae, KUB No. 5584, AR Bank # 87, read-out: MIC
  MIC: 1 µg/mL (≈ 1.33 µM)
Enterobacterales; Klebsiella pneumoniae, KUB No. 5594, AR Bank # 97, read-out: MIC
  MIC: 1 µg/mL (≈ 1.33 µM)
Enterobacterales; Klebsiella pneumoniae, KUB No. 5595, AR Bank # 98, read-out: MIC
  MIC: 0.12 µg/mL (≈ 0.16 µM)
Enterobacterales; Klebsiella pneumoniae, KUB No. 5603, AR Bank # 106, read-out: MIC
  MIC: 1 µg/mL (≈ 1.33 µM)
Enterobacterales; Klebsiella pneumoniae, KUB No. 5604, AR Bank # 107, read-out: MIC
  MIC: ≤ 0.06 µg/mL
Enterobacterales; Klebsiella pneumoniae, KUB No. 5606, AR Bank # 109, read-out: MIC
  MIC: 0.5 µg/mL (≈ 0.665 µM)
Enterobacterales; Klebsiella pneumoniae, KUB No. 5609, AR Bank # 112, read-out: MIC
  MIC: 2 µg/mL (≈ 2.66 µM)
Enterobacterales; Klebsiella pneumoniae, KUB No. 5610, AR Bank # 113, read-out: MIC
  MIC: 0.5 µg/mL (≈ 0.665 µM)
Enterobacterales; Klebsiella pneumoniae, KUB No. 5612, AR Bank # 115, read-out: MIC
  MIC: 0.5 µg/mL (≈ 0.665 µM)
Enterobacterales; Klebsiella pneumoniae, KUB No. 5614, AR Bank # 117, read-out: MIC
  MIC: 2 µg/mL (≈ 2.66 µM)
Enterobacterales; Klebsiella pneumoniae, KUB No. 5617, AR Bank # 120, read-out: MIC
  MIC: 0.25 µg/mL (≈ 0.332 µM)
Enterobacterales; Klebsiella pneumoniae, KUB No. 5622, AR Bank # 125, read-out: MIC
  MIC: 1 µg/mL (≈ 1.33 µM)
Enterobacterales; Klebsiella pneumoniae, KUB No. 5623, AR Bank # 126, read-out: MIC
  MIC: ≤ 0.06 µg/mL
Enterobacterales; Klebsiella pneumoniae, KUB No. 5626, AR Bank # 129, read-out: MIC
  MIC: 1 µg/mL (≈ 1.33 µM)
Enterobacterales; Klebsiella pneumoniae, KUB No. 5632, AR Bank # 135, read-out: MIC
  MIC: 1 µg/mL (≈ 1.33 µM)
Enterobacterales; Klebsiella pneumoniae, KUB No. 5635, AR Bank # 138, read-out: MIC
  MIC: 1 µg/mL (≈ 1.33 µM)
Enterobacterales; Klebsiella pneumoniae, KUB No. 5636, AR Bank # 139, read-out: MIC
  MIC: 0.12 µg/mL (≈ 0.16 µM)
Enterobacterales; Klebsiella pneumoniae, KUB No. 5637, AR Bank # 140, read-out: MIC
  MIC: 0.12 µg/mL (≈ 0.16 µM)
Enterobacterales; Klebsiella pneumoniae, KUB No. 5638, AR Bank # 141, read-out: MIC
  MIC: ≤ 0.06 µg/mL
Enterobacterales; Klebsiella pneumoniae, KUB No. 5639, AR Bank # 142, read-out: MIC
  MIC: < 0.06 µg/mL
Enterobacterales; Klebsiella pneumoniae, KUB No. 5640, AR Bank # 143, read-out: MIC
  MIC: 1 µg/mL (≈ 1.33 µM)
Enterobacterales; Klebsiella pneumoniae, KUB No. 5642, AR Bank # 145, read-out: MIC
  MIC: 0.25 µg/mL (≈ 0.332 µM)
Enterobacterales; Klebsiella pneumoniae, KUB No. 5643, AR Bank # 146, read-out: MIC
  MIC: 0.25 µg/mL (≈ 0.332 µM)
Enterobacterales; Klebsiella pneumoniae, KUB No. 5645, AR Bank # 148, read-out: MIC
  MIC: 0.5 µg/mL (≈ 0.665 µM)
Enterobacterales; Klebsiella pneumoniae, KUB No. 5649, AR Bank # 152, read-out: MIC
  MIC: 0.25 µg/mL (≈ 0.332 µM)
Enterobacterales; Klebsiella pneumoniae, KUB No. 5650, AR Bank # 153, read-out: MIC
  MIC: 1 µg/mL (≈ 1.33 µM)
Enterobacterales; Klebsiella pneumoniae, KUB No. 5655, AR Bank # 158, read-out: MIC
  MIC: 0.5 µg/mL (≈ 0.665 µM)
Enterobacterales; Klebsiella pneumoniae, KUB No. 5657, AR Bank # 160, read-out: MIC
  MIC: 0.25 µg/mL (≈ 0.332 µM)
Enterobacterales; Klebsiella pneumoniae, KUB No. 5757, AR Bank # 361, read-out: MIC
  MIC: 1 µg/mL (≈ 1.33 µM)
Enterobacterales; Klebsiella pneumoniae, KUB No. 5759, AR Bank # 363, read-out: MIC
  MIC: 0.25 µg/mL (≈ 0.332 µM)
Enterobacterales; Klebsiella pneumoniae, KUB No. 5760, AR Bank # 364, read-out: MIC
  MIC: 2 µg/mL (≈ 2.66 µM)
Enterobacterales; Klebsiella pneumoniae, KUB No. 5772, AR Bank # 376, read-out: MIC
  MIC: 1 µg/mL (≈ 1.33 µM)
Enterobacterales; Klebsiella pneumoniae, Klebsiella pneumoniae KUB No. 5784, AR Bank #438, read-out: MIC
  MIC: 0.5 µg/mL (≈ 0.665 µM)
Enterobacterales; Klebsiella pneumoniae, Klebsiella pneumoniae KUB No. 5797, AR Bank #453, read-out: MIC
  MIC: 0.25 µg/mL (≈ 0.332 µM)
Enterobacterales; Klebsiella pneumoniae, Klebsiella pneumoniae KUB No. 5809, AR Bank #504, read-out: MIC
  MIC: 0.25 µg/mL (≈ 0.332 µM)
Enterobacterales; Klebsiella pneumoniae, Klebsiella pneumoniae KUB No. 5810, AR Bank #505, read-out: MIC
  MIC: 0.5 µg/mL (≈ 0.665 µM)
Enterobacterales; Klebsiella pneumoniae, Klebsiella pneumoniae KUB No. 5811, AR Bank #506, read-out: MIC
  MIC: 2 µg/mL (≈ 2.66 µM)
Enterobacterales; Klebsiella pneumoniae, Klebsiella pneumoniae KUB No. 5812, AR Bank #507, read-out: MIC
  MIC: 2 µg/mL (≈ 2.66 µM)
Enterobacterales; Klebsiella pneumoniae, Klebsiella pneumoniae KUB No. 5827, AR Bank #522, read-out: MIC
  MIC: 2 µg/mL (≈ 2.66 µM)
Enterobacterales; Klebsiella pneumoniae, Klebsiella pneumoniae KUB No. 5828, AR Bank #523, read-out: MIC
  MIC: 1 µg/mL (≈ 1.33 µM)
Enterobacterales; Klebsiella pneumoniae, Klebsiella pneumoniae KUB No. 5829, AR Bank #524, read-out: MIC
  MIC: 0.5 µg/mL (≈ 0.665 µM)
Enterobacterales; Klebsiella pneumoniae, Klebsiella pneumoniae KUB No. 5830, AR Bank #525, read-out: MIC
  MIC: 2 µg/mL (≈ 2.66 µM)
Enterobacterales; Kluyvera ascorbata, KUB No. 5641, AR Bank # 144, read-out: MIC
  MIC: ≤ 0.06 µg/mL
Enterobacterales; Morganella morganii, KUB No. 5630, AR Bank # 133, read-out: MIC
  MIC: ≤ 0.06 µg/mL
Enterobacterales; Proteus mirabilis, KUB No. 5556, AR Bank# 59, read-out: MIC
  MIC: 0.25 µg/mL (≈ 0.332 µM)
Enterobacterales; Proteus mirabilis, KUB No. 5652, AR Bank # 155, read-out: MIC
  MIC: ≤ 0.06 µg/mL
Enterobacterales; Proteus mirabilis, KUB No. 5653, AR Bank # 156, read-out: MIC
  MIC: < 0.06 µg/mL
Enterobacterales; Proteus mirabilis, KUB No. 5656, AR Bank # 159, read-out: MIC
  MIC: 0.5 µg/mL (≈ 0.665 µM)
Enterobacterales; Proteus mirabilis, KUB No. 5773, AR Bank # 377, read-out: MIC
  MIC: ≤ 0.06 µg/mL
Enterobacterales; Proteus mirabilis, KUB No. 5775, AR Bank # 379, read-out: MIC
  MIC: 2 µg/mL (≈ 2.66 µM)
Enterobacterales; Providencia rettgeri, KUB No. 5579, AR Bank # 82, read-out: MIC
  MIC: ≤ 0.06 µg/mL
Enterobacterales; Salmonella enterica, Salmonella Senftenberg, KUB No. 5624, AR Bank # 127, read-out: MIC
  MIC: 1 µg/mL (≈ 1.33 µM)
Enterobacterales; Serratia marcescens, KUB No. 5588, AR Bank # 91, read-out: MIC
  MIC: ≤ 0.06 µg/mL
Enterobacterales; Serratia marcescens, KUB No. 5596, AR Bank # 99, read-out: MIC
  MIC: 0.25 µg/mL (≈ 0.332 µM)
Enterobacterales; Serratia marcescens, KUB No. 5618, AR Bank # 121, read-out: MIC
  MIC: 0.12 µg/mL (≈ 0.16 µM)
Enterobacterales; Serratia marcescens, KUB No. 5619, AR Bank # 122, read-out: MIC
  MIC: 0.12 µg/mL (≈ 0.16 µM)
Enterobacterales; Serratia marcescens, KUB No. 5620, AR Bank # 123, read-out: MIC
  MIC: < 0.06 µg/mL
Enterobacterales; Serratia marcescens, KUB No. 5621, AR Bank # 124
  MIC: ≤0.0 µg/mL
Enterobacterales; Serratia marcescens, KUB No. 5627, AR Bank # 130, read-out: MIC
  MIC: 0.12 µg/mL (≈ 0.16 µM)
Enterobacterales; Serratia marcescens, KUB No. 5628, AR Bank # 131, read-out: MIC
  MIC: 50.1 µg/mL (≈ 66.5 µM)
Enterobacterales; Serratia marcescens, Serratia marcescens KUB No. 5822, AR Bank #517, read-out: MIC
  MIC: 2 µg/mL (≈ 2.66 µM)
Enterobacterales; Serratia marcescens, Serratia marcescens KUB No. 5826, AR Bank #521, read-out: MIC
  MIC: 0.5 µg/mL (≈ 0.665 µM)
Enterobacterales; Metallo-β-lactamase (N = 47)
  MIC50: 1 µg/mL (≈ 1.33 µM)
Enterobacterales; Serine carbapenemase (N=61)
  MIC50: 0.25 µg/mL (≈ 0.332 µM)
Enterobacter cloacae; ATCCBAA2341, KUB4002 Enterobacter cloacae ATCC BAA-2341, KPC-3
  MIC: 0.5 µg/mL (≈ 0.665 µM)
Enterobacter cloacae; ATCCBAA2468, KUB4006 Enterobacter cloacae ATCC BAA-2468, NDM-1
  MIC: 1 µg/mL (≈ 1.33 µM)
Klebsiella pneumoniae; ATCCBAA1898, KUB3996 Klebsiella pneumoniae ATCC BAA-1898, KPC-2
  MIC: 2 µg/mL (≈ 2.66 µM)
Klebsiella pneumoniae; ATCCBAA1899, KUB3997 Klebsiella pneumoniae ATCC BAA-1899, KPC-2
  MIC: 2 µg/mL (≈ 2.66 µM)
Klebsiella pneumoniae; ATCCBAA1900, KUB3998 Klebsiella pneumoniae ATCC BAA-1900, KPC-3
  MIC: 0.25 µg/mL (≈ 0.332 µM)
Klebsiella pneumoniae; ATCCBAA1904, KUB3999 Klebsiella pneumoniae ATCC BAA-1904, KPC-3
  MIC: 1 µg/mL (≈ 1.33 µM)
Klebsiella pneumoniae; ATCCBAA2078, KUB4000 Klebsiella pneumoniae ATCC BAA-2078, KPC-3
  MIC: 2 µg/mL (≈ 2.66 µM)
Klebsiella pneumoniae; ATCCBAA2146, KUB4011 Klebsiella pneumoniae ATCC BAA-2146, NDM-1
  MIC: 2 µg/mL (≈ 2.66 µM)
Klebsiella pneumoniae; ATCCBAA2342, KUB4003 Klebsiella pneumoniae ATCC BAA-2342, KPC-3
  MIC: 0.5 µg/mL (≈ 0.665 µM)
Klebsiella pneumoniae; ATCCBAA2343, KUB4004 Klebsiella pneumoniae ATCC BAA-2343, KPC-3
  MIC: 0.25 µg/mL (≈ 0.332 µM)
Klebsiella pneumoniae; ATCCBAA2472, KUB4008 Klebsiella pneumoniae subsp. Pneumoniae ATCC BAA-2472, NDM-1
  MIC: 8 µg/mL (≈ 10.6 µM)
Klebsiella pneumoniae; ATCCBAA2473, KUB4009 Klebsiella pneumoniae ATCC BAA-2473, NDM-1
  MIC: 8 µg/mL (≈ 10.6 µM)
Klebsiella pneumoniae; KUB3631 Klebsiella pneumoniae Clinical isolate, IMP-1
  MIC: 2 µg/mL (≈ 2.66 µM)
Klebsiella pneumoniae; KUB3633 Klebsiella pneumoniae Clinical isolate, IMP-6
  MIC: 1 µg/mL (≈ 1.33 µM)
Klebsiella pneumoniae; KUB3634 Klebsiella pneumoniae Clinical isolate, IMP-6
  MIC: 2 µg/mL (≈ 2.66 µM)
Enterobacter hormaechei
  MIC: 2 µg/mL (≈ 2.66 µM)
[1]
  MIC90: 8 µg/mL
CRE and CPE strains; strain KUB3149, carbapenemase gene NDM-1, read-out: MIC
  MIC: 2 µg/mL (≈ 2.66 µM)
CRE and CPE strains; strain KUB3150, carbapenemase gene OXA-48, read-out: MIC
  MIC: ≤ 0.06 µg/mL
CRE and CPE strains; strain KUB3151, carbapenemase gene IMP-1, read-out: MIC
  MIC: 1 µg/mL (≈ 1.33 µM)
CRE and CPE strains; strain KUB3152, carbapenemase gene KPC-2, read-out: MIC
  MIC: 2 µg/mL (≈ 2.66 µM)
CRE and CPE strains; strain KUB3154, carbapenemase gene KPC-2, read-out: MIC
  MIC: 4 µg/mL (≈ 5.32 µM)
CRE and CPE strains; strain KUB3157, carbapenemase gene NDM-1
  MIC: 8 µg/mL (≈ 10.6 µM)
CRE and CPE strains; strain KUB3164, carbapenemase gene IMP-6
  MIC: 0.12 µg/mL (≈ 0.16 µM)
